Laboratory results as given in patent US8906952B2, “Indole derivative or pharmaceutically acceptable salt thereof, preparation method thereof, and pharmaceutical composition for preventing or treating metabolic diseases containing same as active ingredient” (Korea Research Institute of Bioscience and Biotechnology, priority 2011, dated 2014).
Read-outs that look alike come from different tables or passages of the source.

Tests used:
[1] = biological target: T1, human DGAT2 (Homo sapiens, UniProt Q96PD7); test: DGAT enzyme inhibition test, hDGAT2 enzyme from sf9 insect cells (DGAT2 selectivity); type: biochemical
T1 construct: made in house; host or cells: sf9 insect cells
T1 sequence (Q96PD7 1-388): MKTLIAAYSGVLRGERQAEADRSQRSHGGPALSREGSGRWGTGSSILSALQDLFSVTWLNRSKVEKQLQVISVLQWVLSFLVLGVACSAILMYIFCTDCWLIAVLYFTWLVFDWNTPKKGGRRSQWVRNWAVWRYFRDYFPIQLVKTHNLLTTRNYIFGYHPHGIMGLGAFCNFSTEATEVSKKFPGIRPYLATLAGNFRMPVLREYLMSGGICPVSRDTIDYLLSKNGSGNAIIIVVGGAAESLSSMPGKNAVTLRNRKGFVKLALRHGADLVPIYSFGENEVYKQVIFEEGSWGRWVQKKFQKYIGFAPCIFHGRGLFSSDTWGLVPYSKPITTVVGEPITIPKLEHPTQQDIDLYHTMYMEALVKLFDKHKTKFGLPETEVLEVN
Text: (§1) To investigate inhibitory effect of the compounds of Examples 1-33 against DGAT enzyme activity, DGAT enzyme inhibition and DGAT2 selectivity were investigated using zymogen including:
(§2) 1) hDGAT1 and hDGAT2 enzymes, derived from insect cell overexpressing human DGAT1 and DGAT2 (‘sf9’), respectively,
(§3) To be specific, for the purpose of measuring human-derived DGAT enzyme inhibitory activity, using the zymogen, including enzymes derived from insect cell overexpressing human DGAT1 and DGAT2 (‘sf9’), microsomal protein isolated from human duodenal adenocarcinoma (‘Hutu 80’), and microsomal protein isolated from rat, and according to Coleman et al., (Methods Enzymol., 98-103, 1992), and substrate including 1,2-diacylglycerol(Sigma, D0138) and [^14C]palmitoyl-CoA (Amersham, CFA583), the amount of radiation of [^14C]triacylglycerol produced after enzymatic reaction was measured.
(§4) To be more specific, to the reaction solution containing 175 mM Tris-HCl (pH 8.0), 20 μl bovine serum albumin (10 mg/ml), 100 mM magnesium chloride, 30 μM [^14C]palmitoyl CoA (0.02 μCi, Amersham) and 200 μM 1,2-dioleoylglycerol, reagent dissolved in dimethylsulfoxide (10.0 μl) was added. After introducing 100 to 200 μg isolated microsomal protein and allowing the same to react at 25° C. for 10 min, the reaction was stopped by adding 1.5 ml stop solution (2-propanol:heptane:water=80:20:2, v:v:v). To isolate the product of the reaction (i.e., [^14C]triacylglycerol), 1 ml heptane and 0.5 ml distilled water were added and then decocted. After taking 1 ml supernatant, 2 ml alkaline ethanol solution (ethanol:0.5 N sodium hydroxide:water=50:10:40, v:v:v) were added and then decocted. After taking 0.65 ml supernatant from the decoction, the amount of radiation was measured with liquid scintillation counter (LSC). The DGAT inhibitory activity was calculated with Mathematical Expression 1 below:
(§5) T denotes cpm of experimental group in which the enzymatic reaction solution was treated with the sample,
(§6) C denotes cpm of control group in which the enzymatic reaction solution was not treated with the sample, and
(§7) B denotes cpm of control group treated with the sample without zymogen.

[2] = biological target: T2, human DGAT1 (Homo sapiens, UniProt O75907); test: DGAT enzyme inhibition test, hDGAT1 enzyme from sf9 insect cells; type: biochemical; details: enzyme from sf9 cells overexpressing hDGAT1; read-out: hDGAT-1 (sf9) IC50
T2 construct: made in house; host or cells: sf9 insect cells
T2 sequence (O75907 1-488): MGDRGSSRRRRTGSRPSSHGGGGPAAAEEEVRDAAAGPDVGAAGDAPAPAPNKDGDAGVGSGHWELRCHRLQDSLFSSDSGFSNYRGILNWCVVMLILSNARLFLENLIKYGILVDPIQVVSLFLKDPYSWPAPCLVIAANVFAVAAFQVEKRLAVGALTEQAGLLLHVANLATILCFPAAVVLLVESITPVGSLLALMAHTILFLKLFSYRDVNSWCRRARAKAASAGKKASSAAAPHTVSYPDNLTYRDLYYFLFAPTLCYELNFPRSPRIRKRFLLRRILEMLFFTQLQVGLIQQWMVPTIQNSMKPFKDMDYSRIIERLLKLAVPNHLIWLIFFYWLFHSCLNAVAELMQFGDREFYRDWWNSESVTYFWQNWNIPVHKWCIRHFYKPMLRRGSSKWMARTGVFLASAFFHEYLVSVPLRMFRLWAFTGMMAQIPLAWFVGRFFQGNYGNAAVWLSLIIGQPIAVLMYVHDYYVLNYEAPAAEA
Text: as §1, §2, §3, §4, §5, §6, §7

[3] = system: HepG2 cells; test: DGAT inhibitory effect in HepG2 cells (triglyceride production from [14C]glycerol); type: cell-based; details: Homo sapiens; for activity at 10 µM: HepG2, 6 h, DMSO control = 100, read-out: Triglyceride production rate (%)/HepG2 cells at 10 μM; for inhibition at 10 µM: HepG2, 10 μM, read-out: biosynthesis inhibition rate of triglyceride
Procedure: To investigate inhibition effect on intracellular DGAT enzyme activity of the compounds obtained in Examples 1-51, intracellular DGAT enzyme activity was measured using human-derived liver HepG2 cells.
HepG2 cells were purchased from ATCC, and cultured in 37° C., 5% CO2 incubator including minimum essential medium (2 mM L-glutamine, earle's BSS adjusted to contain 1.5 g/L sodium bicarbonate, 0.1 mM nonessential amino acids, and 1 mM sodium pyruvate) added with 10% fetal bovine serum (FBS) and 1% antibiotic (100 U/ml penicillin and 100 µg/ml streptomycin).
The intracellular DGAT enzyme activity was measured based on an amount of triglycerides produced in the cultured HepG2 cells, by adding 10 μM enzyme inhibitor compounds obtained in Examples 1-51, respectively, and then determining the effect of the enzyme inhibitors according to reduction rate of the triglyceride production.
Specifically, cells were seeded 1×10^6 cell/ml per well of the 24 well culture plate, and 24 hours after incubation, medium was exchanged with FBS-free DMEM medium, and sample of 0.2 mCi [^14C]glycerol (Amersham) was added as substrate, and the reaction was allowed to occur for 6 hr. The induced production of triglyceride was catalyzed by the DGAT enzyme, and DGAT enzyme activity was determined based on the amount of production of triglyceride which was measured based on the amount of radiation. The sample was dissolved in dimethylsulfoxide (DMSO) to be used, and the control group in the triglyceride production reaction was reacted with dimethylsulfoxide only (i.e., without sample), and the amount of the triglyceride production rate was set to 100.
After the reaction completed, the substrate [^14C]glycerol which was either not absorbed into cells or not used for the reaction, were removed with phosphate-buffer-saline (PBS), and 0.5 ml extraction solvent (hexane:isopropanol=3:2, v:v) was added to extract full fat containing triglycerides. With 0.5 ml extraction solvent, extract was obtained two times for 30 min each, and 1 ml of the extract was concentrated with nitrogen gas. After removing the extraction solvent, the total fat was dissolved in organic solvent (chloroform:methanol=2:1) and spotted with thin-layer chromatography (TLC:silica gel 60F254, thickness: 0.5 mm, Merck) on the developing solvent (hexane:diethyl ether:acetic acid=80:20:1, v: v: v). Triglycerides (Rf value: 0.4) were isolated on TLC, and after exposing the TLC plate to the film with photosensitivity to radiation energy (imaging plate' Fujifilm, BMS-MS 2040) for 3 hr, the amount of [^14C] radiation of triglyceride was measured by imaging analysis (FLA 7000). The remaining cells after the extraction were dissolved in 0.3 ml 0.1 N sodium hydroxide for use in the measurement of protein concentration of the cells used for the reaction.
The experimental errors among the respective experimental groups were compensated with the experimental value which was obtained by dividing the measured radiation of triglyceride by protein concentration, and the production rate of triglyceride according to the respective compounds of Examples 1-51 are tabulated below.

[4] = 10 μM, enzyme from sf9 cells overexpressing hDGAT2, read-out: hDGAT-2 (sf9) inhibition rate(%)at 10 μM
[5] = concentration of 10 μM, read-out: hDGAT2 inhibition

SMILES	inhibition at 10 µM [1, 4]	IC50 [2]	inhibition at 10 µM [1, 5]	activity at 10 µM [3]	inhibition at 10 µM [3]
CC(C)c1ccc2c(/C=C/C(=O)N(NC(=O)c3cccc(F)c3)C(C)C)cn(C(=O)OC(C)(C)C)c2c1 [Example 36, (E)-tert-butyl 3-(3-(2-(3-fluorobenzoyl)-1-isopropylhydrazinyl)-3-oxoprop-1-enyl)-6-isopropyl-1H-indole-1-carboxylate]	3.6%	> 100 µM	–	75%	20 to 30%
Cc1ccc2c(/C=C/C(=O)N(NC(=O)c3cccc(F)c3)C(C)C)cn(C(=O)OC(C)(C)C)c2c1 [Example 37, (E)-tert-butyl 3-(3-(2-(3-fluorobenzoyl)-1-isopropylhydrazinyl)-3-oxoprop-1-enyl)-6-methyl-1H-indole-1-carboxylate]	2.9%	> 100 µM	–	79.2%	20 to 30%
CC(C)N(NC(=O)c1cccc(F)c1)C(=O)/C=C/c1cn(C(=O)OC(C)(C)C)c2cc(F)ccc12 [Example 38, (E)-tert-butyl 6-fluoro-3-(3-(2-(3-fluorobenzoyl)-1-isopropylhydrazinyl)-3-oxoprop-1-enyl)-1H-indole-1-carboxylate]	< 0%	> 100 µM	–	85.7%	–
CC(C)N(NC(=O)c1cccc(F)c1)C(=O)/C=C/c1cn(C)c2ccccc12 [Example 40, (E)-3-fluoro-N′-isopropyl-N′-(3-(1-methyl-1H-indol-3-yl)acryloyl)benzohydrazide]	2.2%	> 100 µM	–	90%	–
CCn1cc(/C=C/C(=O)N(NC(=O)c2cccc(F)c2)C(C)C)c2ccccc21 [Example 41, (E)-N′-(3-(1-ethyl-1H-indol-3-yl)acryloyl)-3-fluoro-N′-isopropylbenzohydrazide]	20.3%	8.1 µM	–	79.4%	20 to 30%
CC(C)=CCn1cc(/C=C/C(=O)N(NC(=O)c2ccc(C)cc2)C(C)C)c2ccccc21 [Example 51, (E)-N′-isopropyl-4-methyl-N′-(3-(1-(3-methylbut-2-enyl)-1H-indol-3-yl)acryloyl)benzohydrazide]	37.1%	9.9 µM	–	–	–

The next molecules have a lower IC50 [2] than those just listed; values first:

inhibition at 10 µM [1, 4]	IC50 [2]	inhibition at 10 µM [1, 5]	SMILES	activity at 10 µM [3]	inhibition at 10 µM [3]
18.5%	7.2 µM	–	CC(C)=CCn1cc(/C=C/C(=O)N(NC(=O)c2cccc(F)c2)C(C)C)c2ccccc21 [Example 34]	58%	–
2%	3.2 µM	< 11%	Cc1ccc2c(c1)c(/C=C/C(=O)N(NC(=O)c1cccc(F)c1)C(C)C)cn2C(=O)OC(C)(C)C [Example 35, (E)-tert-butyl 3-(3-(2-(3-fluorobenzoyl)-1-isopropylhydrazinyl)-3-oxoprop-1-enyl)-5-methyl-1H-indole-1-carboxylate]	57.6%	–
42.3%	1.8 µM	–	CC(C)CCn1cc(/C=C/C(=O)N(NC(=O)c2cccc(F)c2)C(C)C)c2ccccc21 [Example 39, (E)-3-fluoro-N′-(3-(1-isopentyl-1H-indol-3-yl)acryloyl)-N′-isopropylbenzohydrazide]	50.8%	–
32.4%	3.6 µM	–	CCCn1cc(/C=C/C(=O)N(NC(=O)c2cccc(F)c2)C(C)C)c2ccccc21 [Example 42, (E)-3-fluoro-N′-isopropyl-N′-(3-(1-propyl-1H-indol-3-yl)acryloyl)benzohydrazide]	79.9%	20 to 30%
0.6%	4 µM	< 11%	CC(C)N(NC(=O)c1ccncc1)C(=O)/C=C/c1cn(C(=O)OC(C)(C)C)c2ccccc12 [Example 43, (E)-tert-butyl 3-(3-(2-isonicotinoyl-1-isopropylhydrazinyl)-3-oxoprop-1-enyl)-1H-indole-1-carboxylate]	81.3%	–
28.7%	2.2 µM	–	CC(C)N(NC(=O)c1cccc(Cl)c1)C(=O)/C=C/c1cn(C(=O)OC(C)(C)C)c2ccccc12 [Example 45, (E)-tert-butyl 3-(3-(2-(3-chlorobenzoyl)-1-isopropylhydrazinyl)-3-oxoprop-1-enyl)-1H-indole-1-carboxylate]	97.9%	–
39%	4.6 µM	–	CC(C)=CCn1cc(/C=C/C(=O)N(NC(=O)c2cccc(C)c2)C(C)C)c2ccccc21 [Example 50, (E)-N′-isopropyl-3-methyl-N′-(3-(1-(3-methylbut-2-enyl)-1H-indol-3-yl)acryloyl)benzohydrazide]	–	–
